Usually half-life stands for the time in which the quantity being followed falls by half. A low value points to fast loss.

The record followed here is patent publication US20240374552A1, “Compositions and Methods for Preventing or Reducing the Risk of Metabolic Syndrome” (priority 2021, published 2024).

A short description of this data set: in vivo. Conditions: 10 mg, t1/2 (h).

On to `CC(C)(C)c1cc(C=C(C#N)C#N)cc(C(C)(C)C)c1O` [tyrphostin AG17, Tyrphostin AG17], for which the half-life is 80.6 h (Geometric Mean), 82.2 h (Mean) and 75.2 h (Median).
